system: Plasmodium falciparum; test: Antimalarial activity against Plasmodium falciparum 3D7; assay type: functional, organism-based

Compound	IC50 [nM]
CC1(CSc2ccc(Cl)cc2)COC2(CCCC2)OO1 (stereo not drawn)	110
CC1(CS(=O)(=O)c2ccc(Cl)cc2)CCOC2(CCCCC2)OO1 (stereo not drawn)	> 1000
CC1(CS(=O)(=O)c2ccc(Cl)cc2)COC(=C2C3CC4CC(C3)CC2C4)OO1 (stereo not drawn)	189
CC1(CS(=O)(=O)c2ccc(Cl)cc2)CCOC2(CCCC2)OO1 (stereo not drawn)	> 1000
CC1(CS(=O)(=O)c2ccc(Cl)cc2)COC2(CCCC2)OO1 (stereo not drawn)	99.8
CC1(CS(=O)(=O)c2ccc(Cl)cc2)COC2(CCCCC2)OO1 (stereo not drawn)	137
CC1(CS(=O)(=O)c2ccc(Cl)cc2)CCOC(=C2C3CC4CC(C3)CC2C4)OO1 (stereo not drawn)	> 1000
COC(=O)/C=C/C1(C)CCOC(=C2C3CC4CC(C3)CC2C4)OO1 (stereo not drawn)	> 1000

— ChEMBL document CHEMBL1139741, “Synthesis of 1,2,4-trioxepanes via application of thiol-olefin co-oxygenation methodology” (Bioorg Med Chem Lett, 2006)
